Data published in US7723326B2, “Heterocyclic amide derivatives as RXR agonists for the treatment of dyslipidemia, hypercholesterolemia and diabetes” (Janssen Pharmaceutica N.V., priority 2005, dated 2010).

Columns and labels:
[1] = tested on: ABCA1 mRNA in THP-1 cells; experiment: ABCA1 bDNA assay (ABCA1 mRNA induction); assay type: cell-based; settings: Homo sapiens; for Emax at 3 µM: relative to MX-6054, read-out: ABCA1 % max MX-6054; for EC50: ABCA1 mRNA induction, usually 18-24 hrs
Procedure: THP-1 cells, a human monocytic cell line, were obtained from ATCC and maintained in RPMI (Gibco) supplemented with 10% fetal bovine serum (Gibco), 2mM L-glutamine and 1% antibiotic-antimycotic in 5% CO2 at 37° C. For ABCA1 mRNA induction assays, the cells were pelleted and resuspended in RPMI supplemented with 0.5% charcoal treated serum (Hyclone), 2 mM glutamine and 1% antibiotic-antimycotic. The cells were plated at a density of 40,000 cells/90 μl and incubated as above for at least 4 hours before the initiation of treatments. Compounds were prepared as 10 mM stocks in DMSO. For treatments, the compounds were diluted in medium and 10 μl of 10× stocks were added to the cells at a final concentration 0.1% DMSO. The cells were incubated for the desired amount of time (usually 18-24 hrs) and then lyzed with 50 μl of Quantigene HV bDNA lysis buffer which also contained the ABCA1 bDNA probes (probe sequences shown below): […]

[2] = target: T1, RXR ligand binding domain (accession number X52773) fused with the DNA binding domain of yeast GAL4 (Homo sapiens, UniProt P19793); experiment: RXR co-transfection assay (GAL4-LBD luciferase reporter in HEK293 cells); assay type: cell-based; settings: 16-18 hours
T1 construct: expressed in transfected cells; host or cells: HEK293
T1 sequence (P19793 227-458 limits assumed): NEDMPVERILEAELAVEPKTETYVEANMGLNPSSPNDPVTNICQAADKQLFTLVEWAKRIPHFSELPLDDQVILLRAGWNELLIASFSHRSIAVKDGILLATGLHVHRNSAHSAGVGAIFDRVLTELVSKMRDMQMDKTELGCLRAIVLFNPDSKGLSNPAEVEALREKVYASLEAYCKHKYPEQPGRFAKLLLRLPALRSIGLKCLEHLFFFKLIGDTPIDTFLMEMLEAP
Procedure: The nucleic acid sequence from 676-1464bp (accession number X52773) encoding the ligand binding domains was subcloned into the pM vector (BD Biosciences Clontech, Palo Alto, Calif.) and were fused with the DNA binding domain of yeast GAL4. HEK293 cells were cultured in DMEM/F12 medium supplemented with 10% FBS and 1% 1-glutamine (growth medium). Cells were seeded at a density of 5-10×10^6 cells in 50 ml of growth medium and left overnight, The medium was removed and the cells were washed with 15 ml of OptiMEM serum free medium (Invitrogen Corp). The cells were transfected using OptiMEM serum free medium and DMRIE transfection reagent (Invitrogen Corp). Approximately 10-30 ng of DNA for the different receptors and 5-10 ng of the luciferase reporter (1:1 ratio for RAR and 4:1 ratio for RXR of receptor DNA:reporter DNA) were gently mixed with 51 μl of DMRIE reagent in a total volume of 17 ml of OptiMEM medium. Eighteen hours after transfection, the cells were washed once with growth medium and then incubated for 6 hrs in 30 ml of growth medium. The cells were then trypsinized, and reseeded at a density of 50,000 per well in 96 well plates and left overnight. The medium was replaced with 90 μl of medium containing DMEM/F12 supplemented with 0.5% charcoal-treated FBS (HyClone; Logan, Utah) and 1% glutamine. Compounds or vehicle were added in 10 μl of 10× concentration of compound or vehicle (0.1% dimethyl sulfoxide). The cells were treated for 16-18 hours, lysed and assayed for luciferase activity using the Steady Gio luciferase assay kit (Promega, Madison, Wis.).

| SMILES | Emax at 3 µM [1] [%] | EC50 [1] [nM] | EC50 [2] [nM] |
| --- | --- | --- | --- |
| CCN1C(=O)C(C)(C)Oc2cc(C)c(-c3cc(/C(C)=C/C(=O)O)ccc3OC(F)(F)F)cc21 [Compound 11, 3-[3-(4-Ethyl-2,2,7-trimethyl-3-oxo-3,4-dihydro-2H-benzo[1,4]oxazin-6-yl)-4-trifluoromethoxy-phenyl]-but-2-enoic acid] | 75.5 | > 2000 | 61.2 |
| CCN1C(=O)C(C)(C)Oc2cc(C)c(-c3cc(CCC(=O)O)ccc3OC(F)(F)F)cc21 [Compound 12, 3-[3-(4-Ethyl-2,2,7-trimethyl-3-oxo-3,4-dihydro-2H-benzo[1,4]oxazin-6-yl)-4-trifluoromethoxy-phenyl]-propionic acid] | – | > 2000 | 709 |
| Cc1cc2c(cc1-c1cc(CCC(=O)O)ccc1OC(F)(F)F)N(C(C)C)C(=O)C(C)(C)O2 [Compound 13, 3-[3-(4-Isopropyl-2,2,7-trimethyl-3-oxo-3,4-dihydro-2H-benzo[1,4]oxazin-6-yl)-4-trifluoromethoxy-phenyl]-propionic acid] | – | > 2000 | 347 |
| CCN1C(=O)OC(C(C)C)c2cc(C)c(-c3cc(CCC(=O)O)ccc3OC(F)(F)F)cc21 (stereo not shown) [Compound 18, 3-[3-(1-Ethyl-4-isopropyl-6-methyl-2-oxo-1,4-dihydro-2H-benzo[d][1,3]oxazin-7-yl)-4-trifluoromethoxy-phenyl]-propionic acid] | 4.5 | > 2000 | > 2000 |
